Measured values taken from PubChem BioAssay (NCI).
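1) Cells in 96-well plates. 2) Compound, 48 h, 5 concentrations. 3) Linear interpolation between surrounding doses. 4) Unreached endpoint = highest concentration. At the GI50, growth is halved. TGI denotes the concentration required for complete inhibition of growth.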

How the values were obtained:
Assay in all cases: inhibition of tumour cell growth, NCI panel, 48 h
786-0 renal = tested on: 786-0 renal
A498 renal = tested on: A498 renal
A549 NSCLC = tested on: A549 NSCLC
COLO 205 colon = tested on: COLO 205 colon
HS 578T breast = tested on: HS 578T breast
KM12 colon = tested on: KM12 colon
SF-268 CNS = tested on: SF-268 CNS
SN12C renal = tested on: SN12C renal

**Q.** For `Cc1cc(Cl)cc2c1NC(=O)C2(O)CC(=O)c1ccco1` (centres undefined), which TGI (786-0 renal) is on record?
**A.** > 100 µM

**Q.** And the TGI (A498 renal)?
**A.** > 100 µM

**Q.** And the TGI (A549 NSCLC)?
**A.** > 100 µM

**Q.** What about the TGI (COLO 205 colon) of the same molecule?
**A.** > 100 µM

**Q.** What about the TGI (HS 578T breast) of the same molecule?
**A.** > 100 µM

**Q.** What about the TGI (KM12 colon) of the same molecule?
**A.** > 100 µM

**Q.** What about the TGI (SF-268 CNS) of the same molecule?
**A.** > 100 µM

**Q.** What about the TGI (SN12C renal) of the same molecule?
**A.** > 100 µM

**Q.** What does the source list for `CCN(CC)CCCC(C)Nc1c2ccc(Cl)cc2nc2ccc(O)cc12` (centres undefined)?
**A.** GI50 (786-0 renal): 2.77 µM; TGI (786-0 renal): 11.9 µM; GI50 (A498 renal): 0.457 µM; TGI (A498 renal): 18.2 µM; GI50 (A549 NSCLC): 1.47 µM; TGI (A549 NSCLC): 3.67 µM; GI50 (COLO 205 colon): 1.17 µM; TGI (COLO 205 colon): 2.63 µM; GI50 (HS 578T breast): 1.68 µM; TGI (HS 578T breast): 5.55 µM; GI50 (KM12 colon): 2.39 µM; TGI (KM12 colon): 10.5 µM; GI50 (SF-268 CNS): 2.04 µM; TGI (SF-268 CNS): 11.3 µM; GI50 (SN12C renal): 2.59 µM; TGI (SN12C renal): 16.6 µM
